# Assay results reported in patent US8853373B2, “Method and reagent for gene sequence analysis” (Hitachi, Ltd., priority 2009, dated 2014).
# Tests used:
# Format in all cases: biochemical
# [1] = tested on: nucleotides G, C, and A (Sequence GA, Sequence CG, Sequence AG); experiment: Exclusivity of the other nucleotides (G, C, and A), elongation luminescence; settings: for Exclusivity of the other nucleotides (G, C, and A): CG, AG, luminescence normalized to dCTP, dGTP, dTTP as 1
# Experimental: (§1) Incorporation into nucleic acid was evaluated as follows. First, one of the above sequences was used as a target. Next, the primer was made to complementarily bind to the target. Then, an elongation experiment was carried out using the respective nucleic acid substrates for that sample. The synthesized nucleic acid substrate requires an affinity (complementary characteristics) with nucleotide T, and exclusivity of the other nucleotides (G, C, and A). The affinity with nucleotide T was evaluated using the Sequence TG and the primer. The exclusivity of the other nucleotides (G, C, and A) was evaluated using the respective Sequence GA, Sequence CG, and Sequence AG, and the primer. In addition, Sequence 5T was used for the evaluation of an ability of continuous incorporation into nucleotide T.
# (§2) A sequencing method using a stepwise chemical reaction is described below. First, 35 μL of ultrapure water, 5 μL of oligo DNA (10 μM) of analysis object (target), and 5 μL of a primer (20 μM) were mixed with 5 μL of a hybridization buffer (10 mM Tris-Acetate, 20 mM Mg-Acetate, pH 7.75) (a sample solution: the final volume was 50 μL). Then, the sample solution was heated at 94° C. for 20 seconds, and reacted at a Tm temperature of the primer for 2 minutes. After that, 0.5 μL, (target: […], primer: […]) of this sample solution, 20 of a luminescence reagent which is designated in Condition 2 of Table 1, and 0.2 μL of a polymerase enzyme (the final concentration: 0.05 U/4) were mixed to prepare a reaction reagent (the final volume was 20.7 μL). To this reaction reagent was added 0.4 μL of 100 μM nucleic acid substrate (the final concentration 2 μM). When nucleic acid elongation occurs, bioluminescence derived from pyrophosphate of the elongation reaction product can be observed. The reaction has a luminescence peak a few seconds after the reaction initiation. […] This luminescence peak value is virtually proportional to the amount of generated pyrophosphate. Measurement of the peak value enables a degree of nucleic acid elongation to be estimated.
# Next, with regard to the respective synthetic substrates, the exclusivity of the other nucleotides (G, C, and A) was assessed using each of Sequence GA, Sequence CG, and Sequence AG and the primer. […] In addition, a background luminescence component of the respective substrates was compensated by taking its difference into account in a manner similar to that of the preceding figures.
# [2] = tested on: 5 consecutive nucleotides of T (Sequence 5T); experiment: Ability of incorporation into consecutive nucleotides of T (Sequence 5T), three consecutive injections; settings: 5 consecutive nucleotides; final concentration 4 μM; E1 = luminescence of 2nd and 3rd injections / total of 1st to 3rd
# Experimental: as §1, §2
# Next, by using Sequence 5T, the ability of incorporation of the respective synthetic substrates into consecutive nucleotides of T was evaluated by the following procedure. The reaction reagent was prepared by using Sequence 5T as a target oligo in the same manner as in the case of evaluation of elongation of one nucleotide as described before. In this case, a target oligo 111 and a primer 112 form a complementary strand binding as depicted in FIG. 11(1). Due to the above, when dATP is dispensed into this reaction reagent as a substrate, five molecules of the substrate are consecutively elongated per target molecule as a primer having the substrate at the 3′ end 113, thereby releasing five molecules of pyrophosphate. If the elongation for all the five nucleotides is not completed, a portion of the nucleotide T remains in a single-stranded state. Because of this, when substrate dATP is dispensed again, the portion is elongated only in the case where a portion of incomplete elongation remains. Therefore, the release of pyrophosphate can be detected as luminescence. […] In addition, substrate dCTP, which is complementary to nucleotide G 114, was subsequently dispensed twice to detect luminescence. […]
# [3] = tested on: nucleotide T (Sequence TG); experiment: Affinity between synthetic substrates and nucleotide T (one-nucleotide elongation, Sequence TG, luminescence); settings: compared with dATPαS / other substrates
# Experimental: as §1
# A sequencing method using a stepwise chemical reaction is described below. […] After that, 0.5 μL, (target: […], primer: […]) of this sample solution, 20 of a luminescence reagent which is designated in Condition 2 of Table 1, and 0.2 μL of a polymerase enzyme (the final concentration: 0.05 U/4) were mixed to prepare a reaction reagent (the final volume was 20.7 μL). […] The reaction has a luminescence peak a few seconds after the reaction initiation. […] This luminescence peak value is virtually proportional to the amount of generated pyrophosphate. […]
# luciferase = luciferase (Photinus pyralis, UniProt P08659); experiment: Evaluation of substrate specificity for luciferase (luminescence on dispensing the substrate)
# Experimental: In respect to the nucleic acid substrates synthesized, whether or not the substrates became a substrate for luciferase was evaluated by the following procedure. First, a luminescence reagent designated in Condition 1 of Table 1 was prepared.
# Next, a reaction solution was prepared using 20 μL of this luminescence reagent, and 0.2 μL of a nucleic acid substrate of evaluation subject was injected. Then, luminescence emitted at this occasion was estimated. FIG. 6 is a graph showing the amount of luminescence when ATP, dATP, C^7dATP, and dATPαS are each dispensed as a substrate. The abscissa (C) indicates a final concentration of the compound in a reaction reagent. For example, when 0.2 μl of 1 μM substrate is dispensed, the final concentration is about 0.01 μM. An amount of luminescence (U) indicated in the ordinate was plotted by normalizing the amount of luminescence at 0.01 μM of ATP as 1. From this graph, the amount of luminescence (U) is found to be proportional to the final concentration (C). Because of this, as a substrate specificity (or substrate reactivity) for luciferase, the value (S) indicating the amount of luminescence per unit concentration is defined as described below. Substrate specificity (S)≡Amount of luminescence (U)/Final concentration (C)[μM]×0.01 (In this Definition, the Substrate Specificity of ATP is Normalized as 1).
# The four points designated in the left side of the graph indicate each substrate specificity (S) of ATP, dATP, dATPαS, and C^7dATP. For a sequencing method using a stepwise chemical reaction represented by pyrosequencing, the amount of ATP generated from pyrophosphate produced in elongation of one nucleotide is equivalent to the amount of a target present in a reaction solution when all of the targets have been elongated. In addition, elongation of a plurality of nucleotides causes the amount to be multiplied by the number of the nucleotides. Generally speaking, the amount of a nucleic acid substrate which should be dispensed per reaction for sequencing requires about 100 times the amount of the target for analysis. This is because a sequenced region may sometimes contain about 10 consecutive identical nucleotides; and a reaction solution for this sequencing method has a substrate-degrading enzyme together, so that the nucleic acid elongation and substrate degradation are competed. Shortage of the substrates causes incomplete elongation, so that the following sequence analysis cannot be carried out. […] As a countermeasure against it, the substrate having about 100 times the target amount which has been generally used is preferably dispensed per reaction.
# In this Example, the synthesized nucleic acid substrates were purified by liquid chromatography. However, removal of pyrophosphate that had been incorporated during the synthesis may be insufficiently carried out only by liquid chromatography-mediated purification. At that occasion, the present inventors treated the synthesized nucleic acid substrates by a pyrophosphate-degrading enzyme (PPase) to decompose the pyrophosphate. Specifically, the synthesized nucleic acid substrate was diluted in a reaction solution (100 mM Tris-Acetate, 0.5 mM EDTA, 5 mM Mg-Acetate, 1 mM DTT, pH 7.5) at a concentration of 500 μM. Then, PPase was added at 0.2 mU/μL, and the mixture was reacted at 30° C. for 30 minutes, which caused degradation of pyrophosphate in the solution. This method represents one example. […]
# DNA Sequence S2 = experiment: Sequence analysis by stepwise chemical reaction (pyrogram), PPDK system, Condition 4; settings: DNA Sequence S2 (3 consecutive nucleotides)
# Experimental: Therefore, a sequence having 3 consecutive nucleotides of T was analyzed for comparison. Analyzed DNA Sequence S2 and a primer P3 are described below.
# Of note is that Sequence P3 represents a primer sequence. This primer can complementarily bind to the underlined portion of the above DNA Sequence S2. FIGS. 16 to 20 show the results of a sequence analysis. In addition, the reagent conditions were listed together in the following Table 3.
# In this experiment, an enzyme system which converts PPi into ATP has employed an enzyme system in which PPi and AMP are converted into ATP by PPDK as described in the conventional technique (Patent Literature 4). The items of the figure are identical to those of FIG. 15. At the bottom of the respective figures, the injected nucleotide types are designated. At the top, the nucleotide types which have been incorporated into a complementary DNA sequence of analysis object are designated. The substrate was injected in the order of “bases A, T, C, and G”, and 7 cycles were analyzed. As indicated in the target sequence, in this analysis, two regions (Cycle 4 and Cycle 7) having 3 consecutive nucleotides of A incorporated are present. Because of this, a difference in the ability of continuous incorporation of a nucleic acid substrate that is used as a nucleotide A can be assessed. Hereinafter, the details are described.
# First, three kinds of the substrates (A3d, dATPαS, and C^7dATP) having the final concentration of 2 μM were used. The results of a sequence analysis will be described (FIGS. 16 to 20). […] At the time of dispensing A (surrounded by the circle ◯) which represented the injected nucleotide type, A3d was used. […] Accordingly, as the signal corresponding to A at the first cycle indicated, background luminescence was observed. Due to this phenomenon, the luminescence signal corresponding to nucleotide A constantly included the increased background luminescence. The symbol • in the figure denotes elongation luminescence corresponding to a nucleotide sequence of a sample. In contrast, the major luminescence without corresponding to the nucleotide sequence is represented by the symbol ∇. […] At the time of dispensing A (surrounded by the circle ◯) which represented the injected nucleotide type, dATPαS was used. The resulting pyrogram and the nucleotide sequence of a sample were compared. The symbol • in the figure denotes elongation luminescence corresponding to a nucleotide sequence of a sample. In contrast, the major luminescence without corresponding to the nucleotide sequence is represented by the symbol ∇. […] At the time of dispensing A (surrounded by the circle ◯) which represented the injected nucleotide type, C^7dATP was used. […] Accordingly, as the signal corresponding to A at the first cycle indicated, big background luminescence was observed. Due to this phenomenon, the luminescence signal corresponding to nucleotide A constantly included the increased background luminescence. The symbol x in the figure denotes just a background luminescence signal. The symbol • denotes elongation luminescence corresponding to a nucleotide sequence of a sample. However, the symbol (•) denotes inclusion of both elongation-derived luminescence and background luminescence. In contrast, the major luminescence without corresponding to the nucleotide sequence is represented by the symbol ∇.
# Sequence of luciferase (P08659 whole entry, species assumed): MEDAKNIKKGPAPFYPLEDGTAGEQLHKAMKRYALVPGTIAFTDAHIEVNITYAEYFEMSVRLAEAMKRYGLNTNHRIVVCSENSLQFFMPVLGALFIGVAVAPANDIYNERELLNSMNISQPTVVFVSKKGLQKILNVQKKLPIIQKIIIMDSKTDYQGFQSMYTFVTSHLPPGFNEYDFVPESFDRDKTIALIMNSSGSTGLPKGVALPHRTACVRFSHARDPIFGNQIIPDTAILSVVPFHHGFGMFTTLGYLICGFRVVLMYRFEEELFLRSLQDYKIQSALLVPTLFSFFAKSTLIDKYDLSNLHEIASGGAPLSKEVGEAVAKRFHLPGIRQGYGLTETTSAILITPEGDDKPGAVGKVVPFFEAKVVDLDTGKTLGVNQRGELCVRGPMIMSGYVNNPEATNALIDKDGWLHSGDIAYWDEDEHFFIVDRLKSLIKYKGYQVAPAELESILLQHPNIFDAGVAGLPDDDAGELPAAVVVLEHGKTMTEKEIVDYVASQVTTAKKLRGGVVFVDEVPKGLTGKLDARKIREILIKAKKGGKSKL
compound,measurement,setting,value
Nc1ncnc2c1c(/C=C/C(=O)NCCc1ccccc1)cn2[C@H]1CC(O)[C@@H](COP(=O)(O)OP(=O)(O)OP(=O)(O)O)O1 (some centres unmarked) [A3a],"Exclusivity of the other nucleotides (G, C, and A)",[1],exhibits luminescence for all the three kinds of nucleotides
Nc1ncnc2c1c(/C=C/C(=O)NCCc1ccccn1)cn2[C@H]1CC(O)[C@@H](COP(=O)(O)OP(=O)(O)OP(=O)(O)O)O1 (some centres unmarked) [A3b],"Exclusivity of the other nucleotides (G, C, and A)",[1],excellent exclusivity
same,Rate of Incomplete Elongation after the First Injection (%),[2],11.2 ± 2.9%
CCCNC(=O)/C=C/c1cn([C@H]2CC(O)[C@@H](COP(=O)(O)OP(=O)(O)OP(=O)(O)O)O2)c2ncnc(N)c12 (some centres unmarked) [A3c],Reaction rate of nucleic acid elongation (luminescence profile),[3],higher reaction rate
same,Exclusivity of nucleotide G,[1],a little poor exclusivity
same,"Exclusivity of the other nucleotides (G, C, and A)",[1],generally good
NCCCCCCNC(=O)CCc1cn([C@H]2CC(O)[C@@H](COP(=O)(O)OP(=O)(O)OP(=O)(O)O)O2)c2ncnc(N)c12 (some centres unmarked) [B4],"Exclusivity of the other nucleotides (G, C, and A)",[1],exhibits luminescence
"Nc1ncnc2c1ccn2[C@H]1C[C@H](O)[C@@H](COP(=O)(O)OP(=O)(O)OP(=O)(O)O)O1 [C^7dATP, 7-deaza-2′-deoxyadenosine triphosphate]",Substrate specificity for luciferase compared with that of dATPαS,luciferase; FIG. 7,about two orders higher
same,"Substrate specificity (S) for luciferase, relative to that of ATP","luciferase; amount of luminescence per unit concentration, substrate specificity of ATP normalized as 1",about 1/250
same,Sequence analysis result as substitute for dATP,"DNA Sequence S2; final concentration 2 μM, 7 cycles","substrate-derived background luminescence was large, so that the precise sequence identification was found to be difficult"
same,Sequence analysis result as substitute for dATP,DNA Sequence S2; final concentration 4 μM,incomplete elongation for the nucleotide G at Cycle 5 was not improved
